According to patent publication US20240237641A1, “COMPOSITION COMPRISING GRAPHENE FOR THE TREATMENT OF TEXTILE ARTICLES AND TEXTILE ARTICLES TREATED” (DIRECTA PLUS S.P.A., priority 2021, published 2024):

Tests used:
[1] = test system: Sars-CoV-2; assay: Test of inhibition of Sars-CoV-2 viral infection of Vero E6 cells; format: cell-based; conditions: Severe acute respiratory syndrome coronavirus 2, Vero C1008, read-out: viable cells
Experimental: The substances were evaluated in the concentration ranges from […]. With the same concentration (0.015 mg/mL) maximum efficacy was obtained with Curcumin (94% viable cells), followed by Emodin (89% viable cells), α-Hederine (71% viable cells) and Thymoquinone (73% viable cells).

[2] = test system: Vero E6 cells; conditions: substances solubilized in DMSO, luminescence kit for quantification of viable cells
From the text: The substances were solubilized in dimethyl sulfoxide (DMSO) and renal epithelial cells (Vero E6 ATCC® CRL-1586™) were used for the test. The experimental procedure used was divided into 3 steps: • 1) Evaluation of cytotoxicity (amount of dead cells) of DMSO on Vero E6 cells compared to the negative control, i.e., compared to Vero E6 cells not treated with DMSO; • 2) Evaluation of cytotoxicity of the single substances dissolved in DMSO on Vero E6 cells compared to the negative control, i.e., compared to Vero E6 cells not treated with DMSO; • 3) Evaluation of inhibition of the infection of Vero E6 cells by Sars-Cov-2 (around 10^5 viral particles/mL) compared to the positive control, i.e., Vero E6 cells infected but not treated with any phytotherapeutic substance.
The substances were administered to Vero E6 cells at different concentrations gradually decreasing towards lower concentrations. Cytotoxicity was evaluated using a luminescence kit for the quantification of viable cells.

COc1cc(/C=C/C(=O)/C=C(O)/C=C/c2ccc(O)c(OC)c2)ccc1O [curcumin]
viability at 15 µg/mL [1]: 94% | concentrations tolerated by the cells [2]: 0.015 mg/mL

Cc1cc(O)c2c(c1)C(=O)c1cc(O)cc(O)c1C2=O [emodin]
viability at 15 µg/mL [1]: 89% | concentrations tolerated by the cells [2]: 0.06 mg/mL

CC1=CC(=O)C(C(C)C)=CC1=O [thymoquinone]
viability at 15 µg/mL [1]: 73% | concentrations tolerated by the cells [2]: 0.0075 mg/mL

C[C@@H]1O[C@@H](O[C@H]2[C@H](O[C@H]3CC[C@@]4(C)[C@@H](CC[C@]5(C)[C@@H]4CC=C4[C@@H]6CC(C)(C)CC[C@]6(C(=O)O)CC[C@]45C)[C@]3(C)CO)OC[C@@H](O)[C@@H]2O)[C@H](O)[C@H](O)[C@H]1O [α-hederine]
viability at 15 µg/mL [1]: 71% | concentrations tolerated by the cells [2]: 0.0075 mg/mL
